Experimental data as given in the supplement of paper PMC10307832.

How the values were obtained:
Assay in all cases: relative viability (nuclei count vs DMSO), 5 days (fraction); higher = more cells survive
Palbociclib + Crizotinib = compound: CC(=O)c1c(C)c2cnc(Nc3ccc(N4CCNCC4)cn3)nc2n(C2CCCC2)c1=O [Palbociclib] + C[C@@H](Oc1cc(-c2cnn(C3CCNCC3)c2)cnc1N)c1c(Cl)ccc(F)c1Cl [Crizotinib] (partner 1 µM)
Procedure, shortened: (§1)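 After 5 days of treatment, lung cancer cells in 1536-well plates were fixed and stained in a single step (final 0.05% Triton X-100, 1% formaldehyde, 1 ug/ml Hoechst) and their nuclei counted on 4× images. Treatment had been applied by pin tool the day after seeding as one drug alone or as a fixed anchor-drug dose with five library-drug doses (not always all listed) in √10 steps. Relative viability is the nuclei count of treated wells divided by that of vehicle wells, and values are medians of duplicate plates.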

Palbociclib + Linsitinib = compound: CC(=O)c1c(C)c2cnc(Nc3ccc(N4CCNCC4)cn3)nc2n(C2CCCC2)c1=O [Palbociclib] + C[C@]1(O)C[C@@H](c2nc(-c3ccc4ccc(-c5ccccc5)nc4c3)c3c(N)nccn32)C1 [Linsitinib] (partner 1 µM)
Procedure, shortened: as §1

Palbociclib + Tozasertib = compound: CC(=O)c1c(C)c2cnc(Nc3ccc(N4CCNCC4)cn3)nc2n(C2CCCC2)c1=O [Palbociclib] + Cc1cc(Nc2cc(N3CCN(C)CC3)nc(Sc3ccc(NC(=O)C4CC4)cc3)n2)n[nH]1 [Tozasertib] (partner 0.1 µM)
Procedure, shortened: as §1

Palbociclib + Dasatinib = compound: CC(=O)c1c(C)c2cnc(Nc3ccc(N4CCNCC4)cn3)nc2n(C2CCCC2)c1=O [Palbociclib] + Cc1nc(Nc2ncc(C(=O)Nc3c(C)cccc3Cl)s2)cc(N2CCN(CCO)CC2)n1 [Dasatinib] (partner 0.075 µM)
Procedure, shortened: as §1

| Cell Line | relative viability (Palbociclib + Crizotinib; first compound 0.01 µM) | relative viability (Palbociclib + Crizotinib; first compound 0.03162 µM) | relative viability (Palbociclib + Crizotinib; first compound 0.1 µM) | relative viability (Palbociclib + Crizotinib; first compound 0.3162 µM) | relative viability (Palbociclib + Crizotinib; first compound 1 µM) | relative viability (Palbociclib + Linsitinib; first compound 0.01 µM) | relative viability (Palbociclib + Linsitinib; first compound 0.03162 µM) | relative viability (Palbociclib + Linsitinib; first compound 0.1 µM) | relative viability (Palbociclib + Linsitinib; first compound 0.3162 µM) | relative viability (Palbociclib + Linsitinib; first compound 1 µM) | relative viability (Palbociclib + Tozasertib; first compound 0.01 µM) | relative viability (Palbociclib + Tozasertib; first compound 0.1 µM) | relative viability (Palbociclib + Tozasertib; first compound 0.3162 µM) | relative viability (Palbociclib + Tozasertib; first compound 1 µM) | relative viability (Palbociclib + Dasatinib; first compound 0.01 µM) | relative viability (Palbociclib + Dasatinib; first compound 0.1 µM) | relative viability (Palbociclib + Dasatinib; first compound 0.3162 µM) | relative viability (Palbociclib + Dasatinib; first compound 1 µM) | relative viability (Palbociclib + Tozasertib; first compound 0.03162 µM) | relative viability (Palbociclib + Dasatinib; first compound 0.03162 µM) |
| --- | --- | --- | --- | --- | --- | --- | --- | --- | --- | --- | --- | --- | --- | --- | --- | --- | --- | --- | --- | --- |
| NCI-H2087 | 0.802 | 0.901 | 0.618 | 0.643 | 0.375 | 0.932 | 0.837 | 0.826 | 0.503 | 0.541 | 0.212 | 0.189 | 0.189 | 0.156 | 0.784 | 0.658 | 0.385 | 0.328 | – | – |
| NCI-H727 | 0.78 | 0.642 | 0.45 | 0.41 | 0.404 | 0.226 | 0.285 | 0.283 | 0.289 | 0.282 | 0.589 | 0.52 | 0.529 | 0.405 | 0.342 | 0.299 | 0.242 | 0.218 | 0.482 | 0.302 |
| LCLC-97TM1 | 0.345 | – | 0.257 | 0.313 | 0.259 | 0.185 | – | 0.167 | 0.165 | 0.158 | 0.218 | 0.202 | 0.216 | 0.169 | 0.694 | 0.738 | 0.585 | 0.329 | 0.206 | 0.572 |
| PC-14 | 1.01 | 0.84 | 0.799 | 0.739 | 0.594 | 1.04 | 0.847 | 0.869 | 0.802 | 0.689 | 0.589 | 0.523 | 0.55 | 0.4 | 0.324 | 0.207 | 0.164 | 0.115 | – | 0.223 |
| NCI-H520 | 0.748 | 0.551 | 0.648 | 0.641 | 0.337 | 1.06 | 0.721 | 0.661 | 0.67 | 0.392 | 0.445 | 0.238 | 0.329 | 0.249 | 0.206 | 0.142 | 0.153 | 0.171 | 0.424 | 0.458 |
| LC-2-ad | 0.417 | – | 0.421 | 0.44 | 0.328 | 0.884 | – | 0.735 | 0.611 | 0.395 | 0.461 | 0.453 | 0.428 | 0.439 | 0.459 | 0.541 | 0.446 | 0.325 | – | – |
| NCI-H1915 | 0.89 | 0.863 | 0.879 | 0.856 | 0.796 | 1.11 | 1.04 | 1.07 | 1.01 | 0.947 | 0.435 | 0.48 | 0.471 | 0.452 | 0.293 | 0.28 | 0.247 | 0.245 | 0.36 | 0.247 |
| EPLC-272H | 0.967 | – | 0.779 | 0.893 | 0.799 | 1.15 | – | 0.988 | 0.999 | 0.716 | 0.326 | 0.331 | 0.339 | 0.42 | 0.328 | 0.345 | 0.249 | 0.198 | – | – |
| NCI-H322M | 0.949 | 0.883 | 0.858 | 0.813 | 0.697 | 0.892 | 0.836 | 0.718 | 0.78 | 0.638 | 0.471 | 0.403 | 0.412 | 0.343 | 0.278 | 0.207 | 0.209 | 0.198 | 0.448 | 0.216 |
